Results reported in patent publication US11639355B2, “Substituted pyrrolo[3,4-d]imidazoles as MDM2-p53 inhibitors” (LUOXIN PHARMACEUTICAL (SHANGHAI) CO., LTD., priority 2018, dated 2023).
Like-named read-outs stand apart in the source and are kept apart here.

How the values were obtained:
[1] = Pharmacokinetic study in mice, tail vein injection and oral cassette dosing; type: in vivo; details: mouse, plasma, female Balb/c mice
Method: The purposes of the present disclosure are to study the pharmacokinetic behaviors of the compounds of the present disclosure in mice and to evaluate the pharmacokinetic characteristics thereof.
Healthy juvenile female Balb/c mice by weight of 20-30 g, 6 in total.
There were 6 female Balb/c mice, with after fasting overnight 3 mice administered a dose of 0.5 mg/kg via tail vein injection; the other 3 mice administered orally a dose of 2 mg/kg.
Blood was collected before administration and 0.08, 0.25, 0.5, 1, 2, 4, 8, and 24 hours after administration, placed in a heparinized anticoagulation tube, and centrifuged at 7000 rpm (5204 g) at 4° C., and the plasma was separated and stored at −80° C. 4 hours after administration, the mice were fed.
The LC/MS/MS method was used to determine the content of the compounds to be tested in mouse plasma after iv and oral administration. Plasma samples were analyzed after pretreatment of protein precipitation.

[2] = tested on: P-glycoprotein (MDR1), human; assay: Two-way permeability evaluation in MDR1-MDCK cells; type: in vitro ADME; details: dog, MDR1-MDCK
From the text: (§1) Experiment purpose: To determine the permeability of the test compounds in MDR1-MDCK cells
(§2) Experiment operation: MDR1-MDCK cells that permanently express human P-glycoprotein were inoculated on a 96-well Insert cell plate, and cultured for 4-7 days to form confluent monolayer cells. […] In addition, the cells were lysed with the cold acetonitrile solution containing the internal standard to measure the accumulation amount of intracellular compounds. The LC/MS/MS method was used to analyze the concentrations of the compounds to be tested in all samples (including an initial dosing solution, supernatant of the donor wells, receiver solution, and cell lysate). The concentrations of the test compounds were expressed by the ratio of the peak area thereof to the peak area of the internal standard to detect the permeability of the compounds from directions of A→B and B→A.

P-glycoprotein (MDR1) = assay: Two-way permeability evaluation in MDR1-MDCK cells; type: in vitro ADME; details: dog, MDCK-MDR1, pH 7.4, MDR1-MDCK
From the text: as §1, §2

[3] = Two-way permeability evaluation in Caco-2 cells; type: in vitro ADME; details: human; for recovery at 2.5 h, 2 μM: Caco-2, pH 7.4, Caco-2
Method: Experiment purpose: To determine the permeability of the test compounds in Caco-2 cells
Experiment operation: Human colon cancer Caco-2 cells were inoculated on a 96-well Insert cell plate at a density of 1×10^5 cells/cm^2, and cultured for 4-5 days to form confluent monolayer cells. The test compounds was diluted with an HBSS buffer (pH 7.4) to a concentration of 2 μM, added to the top or basolateral side of the cells, and incubated at 37° C., 5% CO2 and saturated humidity for 2.5 hours, and then the sample solutions in the donor wells and receiver wells were taken and immediately mixed with a cold acetonitrile solution containing an internal standard. In addition, the cells were lysed with the cold acetonitrile solution containing the internal standard to measure the accumulation amount of intracellular compounds. The LC/MS/MS method was used to analyze the concentrations of the compounds to be tested in all samples (including an initial dosing solution, supernatant of the donor wells, receiver solution, and cell lysate). The concentrations of the test compounds were expressed by the ratio of the peak area thereof to the peak area of the internal standard to detect the permeability of the compounds from directions of A→B and B→A.

MV4-11 tumor cells = assay: Efficacy in mice with subcutaneously transplanted MV4-11 acute myeloid leukemia tumor; type: in vivo; details: 6 mg/kg oral once a day
Method: 0.2 mL (10×10^6 cells, containing 50% Matrigel) of MV4-11 tumor cells were inoculated subcutaneously on the right back of each mouse to form a transplanted tumor; when the volume reached 100-200 mm^3, the animals were randomly grouped according to the tumor volume, with 8 in the negative control group, 8 in the positive control group, and 8 in the experimental group. […] The length (A) and width (B) of the tumor were measured with a vernier caliper twice a week, thereby calculating the tumor volume V=A×B^2/2. The calculation of relative tumor volume (RTV) follows: RTV=Vt/V0, where Vt is the tumor volume at the end of the administration, and V0 is the tumor volume measured before division into different cages for administration. The pharmacodynamic evaluation index of the anti-tumor activity is the relative tumor proliferation ratio T/C (%), and the calculation formula is: T/C (%)=TRTV/CRTV×100%. Where TRTV is the RTV of the treatment group; CRTV is the RTV of the negative control group. Efficacy evaluation criteria: T/C %>60% is invalid; T/C %≤60% and P<0.05 upon statistical treatment is valid.
CVt is the tumor volume of the control group at the end of the administration; CV0 is the tumor volume of the control group before division into different cages for administration; TVt is the tumor volume of the dosing group at the end of the administration; TV0 is the tumor volume of the dosing group before division into different cages for administration. The difference in tumor volumes between the dosing group and the control group was subjected to t-test. At the same time, the nude mice of each group were weighed twice a week to preliminarily evaluate the side effects of the drugs.

[4] = reported data; cited from earlier work
[5] = reported data; cited from earlier work; remark: listed apart in the source
[6] = read-out: Average recovery rate A→B
[7] = read-out: Average recovery rate B→A
[8] = Caco-2, 2 μM, pH 7.4, 2.5 hours

- half-life ([1]; 0.5 mg/kg, intravenous injection 0.5 mpk, read-out: Half-life T1/2 (converted)): 42.6 min
- bioavailability ([1]; 2 mg/kg, iv 0.5 mpk, oral 2 mpk, read-out: Oral bioavailability F): 39.6%
- AUC(0-t) ([1]; 2 mg/kg, oral administration 2 mpk, read-out: Oral exposure AUC0-t): 1.32 µM·h
- efflux ratio at 2.5 h, 2 μM ([2]; pH 7.4): 20.3
- Papp A→B at 2.5 h, 2 μM ([2]; 2 μM, pH 7.4, 2.5 hours): 0.91 ×10⁻⁶ cm/s
- Papp B→A at 2.5 h, 2 μM ([2]; 2 μM, pH 7.4, 2.5 hours): 18.4 ×10⁻⁶ cm/s
- recovery at 2.5 h, 2 μM (P-glycoprotein (MDR1); [6]): 38%
- recovery at 2.5 h, 2 μM (P-glycoprotein (MDR1); [7]): 50%
- efflux ratio at 2.5 h, 2 μM ([3]; Caco-2, pH 7.4): 198
- recovery at 2.5 h, 2 μM [3, 6]: 94.3%
- recovery at 2.5 h, 2 μM [3, 7]: 88.3%
- Papp A→B at 2.5 h, 2 μM [3, 8]: 0.17 ×10⁻⁶ cm/s
- Papp B→A at 2.5 h, 2 μM [3, 8]: 34.3 ×10⁻⁶ cm/s
SMILES: COc1ncc(-c2nc3c(n2C(C)C)[C@H](c2ccc(Cl)cc2)N(c2cc(Cl)cn(C)c2=O)C3=O)c(OC)n1 [NVP-HDM201]
- RTV (21 days) (MV4-11 tumor cells): 4.68 ± 0.69
- T/C (MV4-11 tumor cells; 21 days): 73.58%
- TGI (MV4-11 tumor cells; 21 days): 36.91%
- Tumor volume (Day 0) (MV4-11 tumor cells; Day 0, before administration): 153 ± 20 mm^3
- Tumor volume (Day 21) (MV4-11 tumor cells; Day 21): 695 ± 115 mm^3
- stability in mouse liver microsomes [4]: poor
- drug plasma exposure [5]: low
- half-life in mice [5]: short
